Legend:
[1] = treatment and prevention of chronic and acute pain, particularly neuropathic pain; cited from earlier work
sigma-1 (σ-1) receptor = sigma-1 (σ-1) receptor (Homo sapiens, UniProt Q99720); conditions: cited from earlier work
[2] = drying for 4 hours at 60° C., 80° C. and 100° C.
sigma 2 (σ-2) site = sigma 2 (σ-2) site (Homo sapiens, UniProt Q5BJF2); conditions: cited from earlier work
sigma 1 (σ-1) site = sigma 1 (σ-1) site (Homo sapiens, UniProt Q99720); conditions: cited from earlier work
[3] = Dissolution and absorption profile in vivo compared with the related base; conditions: compared with its related base
[4] = Solubility of P027 in different solvents at room temperature (visual, successive solvent additions); type: physicochemical; conditions: thermodynamic from solid
Method: In order to plan the crystallization screening, […] table 6 using the following methodology (table 7): […] solvent and successive additions (initially 0.2 mL and finally 0.5 mL) of solvent until the solid was completely dissolved or up to a maximum of 8 mL were performed. After each solvent addition the suspension was vigorously stirred for 10-15 minutes and visually inspected to determine if the solid was completely dissolved.

[5] = Descriptive solubility of the P027 compound; type: physicochemical
[6] = Pressure: tablets of P027 phase I in a hydraulic press, PXRD analysis; type: physicochemical
Method: Tablets of P027 phase I were prepared in a hydraulic press at three different pressures (5, 7.5 and 10 tons) for three different times (5, 30 and 90 minutes) [see Table 24].
The solid samples obtained were analyzed by PXRD. […] FIG. 19 illustrates the PXRD pattern of a phase I form obtained by applying a pressure of […] to P027 for 90 minutes.

[7] = Grinding of P027 phase I with catalytic solvent in a ball mill, PXRD analysis; type: physicochemical
Method: Approximately 40 mg of P027 phase I were transferred to a ball mill container together with catalytic quantities of the relevant solvent (three drops). The P027 phase I and the solvent were grinded at a maximum frequency of 30 s^−1 for 30 minutes (see Table 23).
The solid samples obtained were analyzed by PXRD. […] FIG. 18 illustrates the PXRD pattern of a phase I form obtained from grinding P027 together with dichloromethane.

[8] = 1H NMR check of the stability of the salt in phase I samples; type: physicochemical; conditions: several samples of phase I from different crystallizations
Method: In addition, several samples of phase I were analyzed by ^1H NMR in order to check the stability of the salt.

Sequence of sigma 2 (σ-2) site (Q5BJF2 whole entry): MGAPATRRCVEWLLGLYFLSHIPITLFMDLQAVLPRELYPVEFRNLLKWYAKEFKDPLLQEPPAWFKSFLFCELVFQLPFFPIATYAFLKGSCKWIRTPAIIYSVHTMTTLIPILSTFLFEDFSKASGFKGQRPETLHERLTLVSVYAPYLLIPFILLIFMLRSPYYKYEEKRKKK
Sequence of sigma-1 (σ-1) receptor (Q99720 whole entry): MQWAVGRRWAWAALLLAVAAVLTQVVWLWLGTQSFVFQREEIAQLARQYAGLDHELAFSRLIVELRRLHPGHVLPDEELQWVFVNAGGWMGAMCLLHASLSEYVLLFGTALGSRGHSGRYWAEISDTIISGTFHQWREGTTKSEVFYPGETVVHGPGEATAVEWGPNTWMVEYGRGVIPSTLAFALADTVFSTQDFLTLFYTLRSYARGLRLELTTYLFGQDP
Sequence of sigma 1 (σ-1) site (Q99720 whole entry): as above

Cc1cc(OCCN2CCOCC2)nn1-c1ccc2ccccc2c1 [4-[2-[[5-methyl-1-(2-naphthalenyl)-1H-pyrazol-3-yl]oxy]ethyl]morpholine]
analgesic activity [1]: strong analgesic activity | sigma-1 (σ-1) receptor antagonism, selectivity (sigma-1 (σ-1) receptor): highly selective sigma-1 (σ-1) receptor antagonist

C1COCCO1.Cc1cc(OCCN2CCOCC2)nn1-c1ccc2ccccc2c1.Cl [dioxane solvate, 4-[2-[[5-methyl-1-(2-naphthalenyl)-1H-pyrazol-3-yl]oxy]ethyl]morpholine hydrochloride solvate with dioxane]
solid form after drying (PXRD) [2]: transformation to Phase I was observed

SKF 10047
affinity for the sigma 2 (σ-2) site (sigma 2 (σ-2) site): micromolar | affinity for the sigma 1 (σ-1) site (sigma 1 (σ-1) site): nanomolar

Cc1cc(OCCN2CCOCC2)nn1-c1ccc2ccccc2c1.Cl [P027, 4-[2-[[5-methyl-1-(2-naphthalenyl)-1H-pyrazol-3-yl]oxy]ethyl]morpholine hydrochloride]
dissolution and absorption profile in vivo [3]: better dissolution and absorption profile in vivo than its related base | solubility ([4]; organic solvent or mixture, 1,1,1-Trichloroethane, room temperature): < 1.2 mg/mL | solubility ([4]; organic solvent or mixture, 1,2-Dichloroethane, room temperature): 15 to 25 mg/mL | solubility ([4]; organic solvent or mixture, 2-Butanol, solid was dissolved at 60° C., left at room temperature, no solid observed): 3 to 4 mg/mL | solubility ([4]; organic solvent or mixture, 3-Pentanone, solid was dissolved at 80° C., left at room temperature, no solid observed): 1 to 2 mg/mL | solubility ([4]; organic solvent or mixture, Acetone, room temperature): 4 to 5 mg/mL | solubility ([4]; organic solvent or mixture, Acetonitrile, solid was dissolved at 60° C., left at room temperature, no solid observed): 10 to 20 mg/mL | solubility ([4]; organic solvent or mixture, Butyl amine, room temperature): > 50 mg/mL | solubility ([4]; organic solvent or mixture, Chlorobenzene, room temperature): < 1.2 mg/mL | solubility ([4]; organic solvent or mixture, Chloroform, room temperature): > 50 mg/mL | solubility ([4]; organic solvent or mixture, Cyclohexane, room temperature): < 1.2 mg/mL | solubility ([4]; organic solvent or mixture, Dichloromethane, room temperature): > 50 mg/mL | solubility ([4]; organic solvent or mixture, Diethoxymethane, room temperature): < 1.2 mg/mL | solubility ([4]; organic solvent or mixture, Diisopropyl ether, room temperature): < 1.2 mg/mL | solubility ([4]; organic solvent or mixture, Dimethoxymethane, room temperature): < 1.2 mg/mL | solubility ([4]; organic solvent or mixture, Dimethylcarbonate, solid was dissolved at 80° C., left at room temperature, no solid observed): 1 to 2 mg/mL | solubility ([4]; organic solvent or mixture, Dimethylformamide, room temperature): > 50 mg/mL | solubility ([4]; organic solvent or mixture, Dimethylsulfoxide, room temperature): > 50 mg/mL | solubility ([4]; organic solvent or mixture, Dioxane, solid was dissolved at 80° C., left at room temperature, no solid observed): 1 to 2 mg/mL | solubility ([4]; organic solvent or mixture, Ethanol, room temperature): 15 to 25 mg/mL | solubility ([4]; organic solvent or mixture, Ethyl acetate, room temperature): < 1.2 mg/mL | solubility ([4]; organic solvent or mixture, Isobutyl acetate, room temperature): < 1.2 mg/mL | solubility ([4]; organic solvent or mixture, Isopropanol, solid was dissolved at 60° C., left at room temperature, no solid observed): 4 to 5 mg/mL | solubility ([4]; organic solvent or mixture, Isopropyl acetate, room temperature): < 1.2 mg/mL | solubility ([4]; organic solvent or mixture, Methanol, room temperature): > 50 mg/mL | solubility ([4]; organic solvent or mixture, Methyl acetate, room temperature): < 1.2 mg/mL | solubility ([4]; organic solvent or mixture, Methyl ethyl ketone, solid was dissolved at 60° C., left at room temperature, no solid observed): 2 to 4 mg/mL | solubility ([4]; organic solvent or mixture, Methyl isobutyl ketone, room temperature): < 1.2 mg/mL | solubility ([4]; organic solvent or mixture, Methyl tert-butyl ether, room temperature): < 1.2 mg/mL | solubility ([4]; organic solvent or mixture, N,N-Dimethylacetamide, room temperature): 25 to 50 mg/mL | solubility ([4]; organic solvent or mixture, Nitromethane, room temperature): 25 to 50 mg/mL | solubility ([4]; organic solvent or mixture, Propyl acetate, room temperature): < 1.2 mg/mL | solubility ([4]; organic solvent or mixture, Pyridine, room temperature): 25 to 50 mg/mL | solubility ([4]; organic solvent or mixture, Tetrahydrofuran, room temperature): < 1.2 mg/mL | solubility ([4]; organic solvent or mixture, Toluene, room temperature): < 1.2 mg/mL | solubility ([4]; organic solvent or mixture, Triethylamine, room temperature): < 1.2 mg/mL | solubility ([4]; organic solvent or mixture, Xylene, room temperature): < 1.2 mg/mL | solubility ([4]; organic solvent or mixture, n-Butanol, solid was dissolved at 60° C., left at room temperature, no solid observed): 5 to 10 mg/mL | solubility ([4]; organic solvent or mixture, n-Heptane, room temperature): < 1.2 mg/mL | solubility ([4]; organic solvent or mixture, n-Hexane, room temperature): < 1.2 mg/mL | solubility ([4]; Water, room temperature): > 50 mg/mL | solubility in 1N hydrochloric acid ([5]; 1N hydrochloric acid): freely soluble | solubility in 1N sodium hydroxide ([5]; 1N sodium hydroxide): practically insoluble | solubility in acetone ([5]; acetone): slightly soluble | solubility in dimethyl sulphoxide ([5]; dimethyl sulphoxide): freely soluble | solubility in ethanol ([5]; ethanol): sparingly soluble | solubility in ethyl acetate ([5]; ethyl acetate): practically insoluble | solubility in methanol ([5]; methanol): freely soluble | solubility in water ([5]; water): very soluble

Cc1cc(OCCN2CCOCC2)nn1-c1ccc2ccccc2c1.Cl [P027 phase I, 4-[2-[[5-methyl-1-(2-naphthalenyl)-1H-pyrazol-3-yl]oxy]ethyl]morpholine hydrochloride phase I crystalline form]
phase stability under pressure (PXRD) ([6]; 5, 7.5 and 10 tons for 5, 30 and 90 minutes): stable under pressure | phase stability under pressure (PXRD) ([6]; pressure of 30 tons for 90 minutes (FIG. 19)): consistent with the standard phase I PXRD pattern demonstrating the phase stability | phase stability after grinding (PXRD) ([7]; ball mill, three drops of solvent (Table 23), 30 s^-1 for 30 minutes): stable after grinding | phase stability after grinding (PXRD) ([7]; grinding together with dichloromethane (FIG. 18)): consistent with the standard phase I PXRD pattern demonstrating the phase stability | stability of the salt (1H NMR) [8]: no signs of the lost of HCl or decomposition

Source: patent publication US9051275B2, “4-[-2-[[5-methyl-1-(2-naphtalenyl)-1H-pyrazol-3-yl]oxy]ethyl]morpholine hydrochloride polymorphs and solvates” (Laboratories Del Dr. Esteve, S.A., priority 2010, dated 2015)
